# Measured values reported in patent US9169254B2, “Spiroimidazolone derivative” (Chugai Seiyaku Kabushiki Kaisha, priority 2009, dated 2015).
# Where a name gives a salt, the structure may show the parent alone.
# Biological target: T1, human PTH1 receptor (Homo sapiens, UniProt Q03431)
# T1 sequence (Q03431 27-593): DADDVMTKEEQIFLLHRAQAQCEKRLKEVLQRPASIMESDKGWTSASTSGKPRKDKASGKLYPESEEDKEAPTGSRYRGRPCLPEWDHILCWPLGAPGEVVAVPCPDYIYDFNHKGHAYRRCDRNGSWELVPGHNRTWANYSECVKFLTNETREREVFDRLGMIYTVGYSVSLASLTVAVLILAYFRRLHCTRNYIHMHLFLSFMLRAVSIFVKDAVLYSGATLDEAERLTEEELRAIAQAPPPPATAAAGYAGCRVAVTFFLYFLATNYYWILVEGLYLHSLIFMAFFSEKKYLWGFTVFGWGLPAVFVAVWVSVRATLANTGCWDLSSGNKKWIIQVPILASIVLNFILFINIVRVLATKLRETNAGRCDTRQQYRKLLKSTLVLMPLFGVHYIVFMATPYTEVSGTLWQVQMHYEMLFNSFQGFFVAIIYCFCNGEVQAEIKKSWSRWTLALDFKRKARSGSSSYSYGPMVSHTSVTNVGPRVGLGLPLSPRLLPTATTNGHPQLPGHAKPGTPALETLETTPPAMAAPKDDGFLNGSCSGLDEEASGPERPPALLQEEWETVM
# Assay: In vitro cAMP signal activity in HKRK-B7 cells (LLC-PK1 cells overexpressing the human PTH1 receptor)
# Assay type: cell-based
# Conditions: HKRK-B7 cells; compound at 1×10^−3 M; cAMP produced as percentage of that produced by hPTH(1-34) at 100 nM
row,SMILES,cAMP production activity (%)
1,"Cc1cc(C(=O)N2CCC(C)(O)CC2)cc(C)c1/C=C/S(=O)(=O)N1CCC2(CC1)N=C(c1ccc(OC(F)(F)F)c(OCCCC(F)(F)F)c1)NC2=O [Compound 1232, 8-{(E)-2-[4-(4-hydroxy-4-methyl-piperidine-1-carbonyl)-2,6-dimethyl-phenyl]-ethenesulfonyl}-2-[3-(4,4,4-trifluoro-butoxy)-4-trifluoromethoxy-phenyl]-1,3,8-triaza-spiro[4.5]dec-1-en-4-one]",106
2,"Cc1cc(NC(=O)NCC(=O)O)ccc1/C=C/S(=O)(=O)N1CCC2(CC1)N=C(C1CCC(C)CC1)NC2=O (stereo not shown) [Compound 1169, [3-(3-methyl-4-{(E)-2-[2-(4-methyl-cyclohexyl)-4-oxo-1,3,8-triaza-spiro[4.5]dec-1-ene-8-sulfonyl]-vinyl}-phenyl)-ureido]-acetic acid]",50
3,"CN(CCO)c1ccc(/C=C/S(=O)(=O)N2CCC3(CC2)N=C(C2CCCCC2)NC3=O)c(C(F)(F)F)c1 [Compound 501, 2-cyclohexyl-8-((E)-2-{4-[(2-hydroxy-ethyl)-methyl-amino]-2-trifluoromethyl-phenyl}-ethenesulfonyl)-1,3,8-triaza-spiro[4.5]dec-1-en-4-one]",59
4,"Cc1cc(C(=O)N2CCC(C)(O)CC2)cc(C)c1/C=C/S(=O)(=O)N1CCC2(CC1)N=C(C1CCC(CCC(F)(F)F)CC1)NC2=O (stereo not shown) [Compound 989, 8-{(E)-2-[4-(4-Hydroxy-4-methyl-piperidine-1-carbonyl)-2,6-dimethyl-phenyl]-ethenesulfonyl}-2-[4-(3,3,3-trifluoro-propyl)-cyclohexyl]-1,3,8-triaza-spiro[4.5]dec-1-en-4-one]",86
5,"Cc1cc(N2CCOC2=O)ccc1/C=C/S(=O)(=O)N1CCC2(CC1)N=C(C1CCC(C)CC1)NC2=O (stereo not shown) [Compound 513, 2-(4-methyl-cyclohexyl)-8-{(E)-2-[2-methyl-4-(2-oxo-oxazolidin-3-yl)-phenyl]-ethenesulfonyl}-1,3,8-triaza-spiro[4.5]dec-1-en-4-one]",33
6,"CC(=O)N(CC#N)c1ccc(/C=C/S(=O)(=O)N2CCC3(CC2)N=C(c2cccc(OC(F)(F)F)c2)NC3=O)c(C)c1 [Compound 612, N-cyanomethyl-N-(3-methyl-4-{(E)-2-[4-oxo-2-(3-trifluoromethoxy-phenyl)-1,3,8-triaza-spiro[4.5]dec-1-ene-8-sulfonyl]-vinyl}-phenyl)-acetamide]",62
7,"O=C1NC(C2CCCCC2)=NC12CCN(S(=O)(=O)CCC/C=C/c1cccc3[nH]ccc13)CC2 [Compound 252, 2-Cyclohexyl-8-[(E)-5-(1H-indol-4-yl)-pent-4-ene-1-sulfonyl]-1,3,8-triaza-spiro[4.5]dec-1-en-4-one]",28
8,"Cc1cc(C2=NC3(CCN(S(=O)(=O)CCc4ccc(C(=O)N(C)C)cc4C)CC3)C(=O)N2)ccc1F [Compound 117, 4-{2-[2-(4-fluoro-3-methyl-phenyl)-4-oxo-1,3,8-triaza-spiro[4.5]dec-1-ene-8-sulfonyl]-ethyl}-3,N,N-trimethyl-benzamide]",61
9,"Cc1cc(CC(N)=O)ccc1CCS(=O)(=O)N1CCC2(CC1)N=C(C1CCC(C)CC1)NC2=O (stereo not shown) [Compound 750, 2-(3-Methyl-4-{2-[2-(4-methyl-cyclohexyl)-4-oxo-1,3,8-triaza-spiro[4.5]dec-1-ene-8-sulfonyl]-ethyl}-phenyl)-acetamide]",87
10,"Cc1cc(C(=O)N2CCC(N)C2)ccc1CCS(=O)(=O)N1CCC2(CC1)N=C(c1cccc(C(F)(F)F)c1)NC2=O (stereo not shown) [Compound 445, 8-{2-[4-(3-amino-pyrrolidine-1-carbonyl)-2-methyl-phenyl]-ethanesulfonyl}-2-(3-trifluoromethyl-phenyl)-1,3,8-triaza-spiro[4.5]dec-1-en-4-one hydrochloride]",83
11,"COCCN(C(C)=O)c1cc(C)c(/C=C/S(=O)(=O)N2CCC3(CC2)N=C(C2CCC(CCC(F)(F)F)CC2)NC3=O)c(C)c1 (stereo not shown) [Compound 543, N-[3,5-dimethyl-4-((E)-2-{4-oxo-2-[4-(3,3,3-trifluoro-propyl)-cyclohexyl]-1,3,8-triaza-spiro[4.5]dec-1-ene-8-sulfonyl}-vinyl)-phenyl]-N-(2-methoxy-ethyl)-acetamide]",76
12,"O=C1NC(C2CCC(F)(F)CC2)=NC12CCN(S(=O)(=O)/C=C/c1cccc3c1ccn3C[C@H](O)CO)CC2 [Compound 241, 2-(4,4-difluoro-cyclohexyl)-8-{(E)-2-[1-((S)-2,3-dihydroxy-propyl)-1H-indol-4-yl]-ethenesulfonyl}-1,3,8-triaza-spiro[4.5]dec-1-en-4-one]",44
13,"CCCCCCCCCC1=NC2(CCN(S(=O)(=O)C(F)(F)Cc3c(C)cc(N(C)C(N)=O)cc3C)CC2)C(=O)N1 [Compound 1086, 1-{4-[2,2-Difluoro-2-(2-nonyl-4-oxo-1,3,8-triaza-spiro[4.5]dec-1-ene-8-sulfonyl)-ethyl]-3,5-dimethyl-phenyl}-1-methyl-urea]",151
14,"Cc1cc(CN2C(=O)CNC2=O)cc(C)c1/C=C/S(=O)(=O)N1CCC2(CC1)N=C(C1CCC(CCC(F)(F)F)CC1)NC2=O (stereo not shown) [Compound 554, 3-[3,5-dimethyl-4-((E)-2-{4-oxo-2-[4-(3,3,3-trifluoro-propyl)-cyclohexyl]-1,3,8-triaza-spiro[4.5]dec-1-ene-8-sulfonyl}-vinyl)-benzyl]-imidazolidine-2,4-dione]",82
15,"O=C(Nc1ccncc1)c1cccc(CCS(=O)(=O)N2CCC3(CC2)N=C(C2CCCCC2)NC3=O)c1 [Compound 422, 3-[2-(2-cyclohexyl-4-oxo-1,3,8-triaza-spiro[4.5]dec-1-ene-8-sulfonyl)-ethyl]-N-pyridin-4-yl-benzamide]",14
16,"Cc1cc(N(CCO)C(=O)N(C)CCO)cc(C)c1/C=C/S(=O)(=O)N1CCC2(CC1)N=C(c1cccc(OC(F)(F)F)c1)NC2=O [Compound 533, 1-(3,5-dimethyl-4-{(E)-2-[4-oxo-2-(3-trifluoromethoxy-phenyl)-1,3,8-triaza-spiro[4.5]dec-1-ene-8-sulfonyl]-vinyl}-phenyl)-1,3-bis-(2-hydroxy-ethyl)-3-methyl-urea]",69
17,"Cc1cc(C(=O)N2CCC(F)(F)CC2)ccc1CCS(=O)(=O)N1CCC2(CC1)N=C(c1cccc(C(F)(F)F)c1)NC2=O [Compound 365, 8-{2-[4-(4,4-difluoro-piperidine-1-carbonyl)-2-methyl-phenyl]-ethanesulfonyl}-2-(3-trifluoromethyl-phenyl)-1,3,8-triaza-spiro[4.5]dec-1-en-4-one]",81
18,"CC(=O)N(C)c1cc(F)c(/C=C/S(=O)(=O)N2CCC3(CC2)N=C(C2CCC(C)CC2)NC3=O)c(F)c1 (stereo not shown) [Compound 523, N-(3,5-difluoro-4-{(E)-2-[2-(4-methyl-cyclohexyl)-4-oxo-1,3,8-triaza-spiro[4.5]dec-1-ene-8-sulfonyl]-vinyl}-phenyl)-N-methyl-acetamide]",89
19,"COC(=O)Cn1ccc2c(/C=C/S(=O)(=O)N3CCC4(CC3)N=C(C3CCCCC3)NC4=O)cccc21 [Compound 476, {4-[(E)-2-(2-cyclohexyl-4-oxo-1,3,8-triaza-spiro[4.5]dec-1-ene-8-sulfonyl)-vinyl]-indol-1-yl}-acetic acid methyl ester]",61
